pIC50: −log10 of the molar value.
Assays:
Type in all cases: biochemical
S6K1 = target: T1, S6K1 (Homo sapiens, UniProt P23443, T412E); assay: S6K1 kinase inhibition (S6K1ΔCT/T412E, TR-FRET); conditions: read-out: IC50 Range Class, inhibition of S6K1
T1 construct: His (N); made in house; host or cells: Sf9 insect cells (baculovirus, pFastBacHT A), co-infected with GST-PDK1 virus
Source text: The DNA fragment encoding S6K1ΔCT/T412E is subcloned to the baculovirus donor vector pFastBacHT A to generate a recombinant baculovirus that expresses S6K1ΔCT/T412E. Transfer vectors for S6K1ΔCT/T412E are transfected into the DH10Bac cell line (GIBCO). After selection of white colonies, they are used for viral DNA (bacmid) preparation. Sf9 cells (American Type Culture Collection) cells are then transfected with the viral DNA using Cellfectin reagent. Virus-containing media is collected from the transfected cell culture and is used for infection to increase its titer. For large-scale protein expression, Sf9 cells are co-infected with S6K1ΔCT/T412E and GST-PDK1 virus-containing media with MOI of 2.25 and 1, respectively. After 3 days, the cells expressing the recombinant enzyme are resuspended in the culture medium with a sterilized cell scraper and harvested by centrifugation. The cells are resuspended in 5 volumes of cell pellet of Extraction Buffer (50 mM MOPS pH 7.0, containing 300 mM NaCl, 0.05% Tween-20, 10 mM sodium pyrophosphate, 50 mM β-glycerophosphate, 0.2 mM cantharidic acid and 1× complete-EDTA protease inhibitor cocktail) and then disrupted with 15 strokes of a Dounce homogenizer followed by sonication on ice. The homogenate is centrifuged at 4° C. for 60 minutes at 48,000×g. The supernatant is clarified with a 5 μm filter and subjected to purification with TALON Superflow Resin (Clontech). First, 1 mL of TALON resin per 5 mL of the supernatant was equilibrated with the Extraction Buffer and resuspended in the supernatant followed by gentle agitation for 20 minutes at RT. After centrifugation at 700×g for 5 minutes, supernatant is removed. The resin is washed twice by adding 10 bed volumes of the Extraction Buffer, agitating for 10 minutes at RT, centrifugating at 700×g for 5 minutes, and discarding the supernatant. The resin is then resuspended with the same volume of the Extraction Buffer and transferred to an disposable chromatography column. The packed column is washed once with 10 bed volumes of the Extraction Buffer and additionally with the same volume of Wash Buffer (5 mM imidazole in the Extraction Buffer). Then, the His-tagged S6K1ΔCT/T412E is eluted with four bed volumes of Elution Buffer (150 mM imidazole in the Extraction Buffer).
Measure of enzyme activity: The kinase assay with purified S6K1ΔCT/T412E is performed with TR-FRET (Time-Resolved Fluorescene Resonance Energy Transfer) technology. First, ATP-dependent phosphorylation of the biotinylated substrate peptide corresponding to residues 229-242 of S6 ribosomal protein (Biot-AKRRRLSSLRASTS) is carried out for 1 hour at 37° C. in […] under humidified air. The kinase reaction mixture of the final volume of 9 μL contains 2.57 ng of purified S6K1ΔCT/T412E protein, 50 mM MOPS (pH 7.0), 0.1 mM EGTA, 0.01 mM Na3VO4, 0.05% Tween-20, 0.01% BSA, 1 mM DTT, 10 mM MgCl2, 3 μM ATP, 0.5 μM biotinylated substrate peptide, 1% of DMSO or the text compounds of the formula (I) at the required concentration in 1% DMSO. For measurement of background, 20 mM of EDTA is added to the reaction mixture. […] Phosphorylated peptide indicative of kinase activity is quantitated by exciting the sample at 330 nm and comparing donor emission at 615 nm and acceptor emission at 665 nm by 2101 EnVision HTS multilabel plate reader (Perkin Elmer). […]

RET = target: T2, RET (Homo sapiens, UniProt P07949); assay: RET kinase inhibition (33P filter assay, GST-wtRET or GST-RET-Men2B); conditions: for pIC50: read-out: IC50 Range Class, inhibition of RET
T2 construct: fused on or other part: N-terminal GST tag (from vector pFB-GSTX3)
T2 sequence (P07949 1-1072 isoform P07949-2): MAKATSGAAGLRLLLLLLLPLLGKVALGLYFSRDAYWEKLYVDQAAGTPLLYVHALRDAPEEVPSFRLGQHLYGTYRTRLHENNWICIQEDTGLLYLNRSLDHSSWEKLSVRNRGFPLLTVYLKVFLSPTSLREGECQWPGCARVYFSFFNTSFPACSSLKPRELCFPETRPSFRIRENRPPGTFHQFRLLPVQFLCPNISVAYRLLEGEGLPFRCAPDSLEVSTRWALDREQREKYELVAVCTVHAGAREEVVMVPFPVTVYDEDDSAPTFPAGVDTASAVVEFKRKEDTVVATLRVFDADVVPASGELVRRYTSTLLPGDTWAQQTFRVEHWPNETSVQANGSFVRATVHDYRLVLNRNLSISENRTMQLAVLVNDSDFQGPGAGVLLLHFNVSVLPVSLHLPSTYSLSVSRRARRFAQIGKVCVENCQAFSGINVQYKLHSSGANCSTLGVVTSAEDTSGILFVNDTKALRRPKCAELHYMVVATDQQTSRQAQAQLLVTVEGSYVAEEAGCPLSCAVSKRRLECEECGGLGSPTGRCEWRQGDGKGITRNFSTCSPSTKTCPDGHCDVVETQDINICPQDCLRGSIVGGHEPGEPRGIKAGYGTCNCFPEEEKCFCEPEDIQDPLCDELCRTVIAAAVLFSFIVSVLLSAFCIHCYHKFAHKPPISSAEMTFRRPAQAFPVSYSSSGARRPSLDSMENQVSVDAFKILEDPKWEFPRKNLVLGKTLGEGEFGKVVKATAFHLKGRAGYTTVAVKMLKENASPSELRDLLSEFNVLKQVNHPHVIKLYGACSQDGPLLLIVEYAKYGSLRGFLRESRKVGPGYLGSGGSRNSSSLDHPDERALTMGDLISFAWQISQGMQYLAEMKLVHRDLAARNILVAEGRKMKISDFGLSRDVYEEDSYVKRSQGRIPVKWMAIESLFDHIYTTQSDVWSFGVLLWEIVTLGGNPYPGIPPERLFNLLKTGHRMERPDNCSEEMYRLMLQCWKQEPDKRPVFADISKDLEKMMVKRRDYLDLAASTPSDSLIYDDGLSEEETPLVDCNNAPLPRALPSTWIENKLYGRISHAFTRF
Method: RET kinase inhibition is determined as follows: The baculovirus donor vector pFB-GSTX3 is used to generate a recombinant baculovirus that expresses the amino acid region 658-1072 (Swiss Prot No. Q9BTB0) of the intra-cytoplasmic kinase domain of human RET-Men2A which corresponds to the wild-type kinase domain of RET (wtRET) and RET-Men2B, which differs from the wtRET by the activating mutation in the activation loop M918T. The coding sequences for the cytoplasmic domain of wtRET and RET-Men2B are amplified by PCR from the plasmids pBABEpuro RET-Men2A and pBABEpuro RET-Men2B, respectively which are received from Dr. James Fagin, College of Medicine, University of Cincinnati. The amplified DNA fragments and the pFB-GSTX3 vector are made compatible for ligation by digestion with SaII and KpnI. Ligation of these DNA fragments results in the baculovirus donor plasmid pFB-GX3-RET-Men2A and pFB-GX3-RET-Men2B, respectively.
Production of virus: Transfer vectors containing the kinase domains are transfected into the DH10Bac cell line (GIBCO) and plated on selective agar plates. Colonies without insertion of the fusion sequence into the viral genome (carried by the bacteria) are blue. Single, white colonies are picked and viral DNA (bacmid) isolated from the bacteria by standard plasmid purification procedures. Sf9 cells or Sf21 (American Type Culture Collection) cells are then transfected in 25 cm^2 flasks with the viral DNA using Cellfectin reagent.
Determination of small scale protein expression in Sf9 cells: Virus-containing media is collected from the transfected cell culture and used for Infection to increase its titer. Virus-containing media obtained after two rounds of infection is used for large-scale protein expression. For large-scale protein expression 100 cm^2 round tissue culture plates are seeded with 5×10^7 cells/plate and infected with 1 mL of virus-containing media (approximately 5 MOls). After 3 days, the cells are scraped off the plate and centrifuged at 500 rpm for 5 minutes. Cell pellets from 10-20, 100 cm^2 plates, are re-suspended in 50 mL of ice-cold lysis buffer (25 mM tris-HCl, pH 7.5, 2 mM EDTA, 1% NP-40, 1 mM DTT, 1 mM P MSF). The cells are stirred on ice for 15 minutes and then centrifuged at 5,000 rpms for 20 minutes.
Purffication of GST-tagged proteins: The centrifuged cell lysate is loaded onto a 2 mL glutathione-sepharose column (Pharmacia) and washed 3× with 10 mL of 25 mM tris-HCl, pH 7.5, 2 mM EDTA, 1 mM DTT, 200 mM NaCl. The GST-tagged proteins are then eluted by 10 applications (1 mL each) of 25 mM tris-HCl, pH 7.5, 10 mM reduced-glutathione, 100 mM NaCl, 1 mM DTT, 10% glycerol and stored at −70° C.
Measure of enzyme activity: Tyrosine protein kinase assays with either purified GST-wtRET or GST-RET-Men2B protein are carried out in a final volume of 30 μL containing 15 ng of either GST-wtRET or GST-RET-Men2B protein, 20 mM tris-HCl, pH 7.5, 1 mM MnCl2, 10 mM MgCl2, 1 mM DTT, 3 μg/mL poly(Glu, Tyr) 4:1, 1% dimethyl sulfoxide (DMSO), 2.0 μM ATP (γ-[^33P]-ATP 0.1 μCi). The activity is assayed in the presence or absence of inhibitors, by measuring the Incorporation of ^33P from [γ^33P] ATP into poly(Glu, Tyr) 4:1. The assay is carried out in 96-well plates at ambient temperature for 15 minutes under conditions described below and terminated by the addition of 20 μL of 125 mM EDTA. […] Membranes are counted after drying at ambient temperature, mounting in Packard TopCount 96-well frame, and addition of 10 μL/well of Microscint™ (Packard). […]

PKB = PKB (Homo sapiens, UniProt P31749); assay: PKB kinase inhibition (PDK1-activated GST-PKB, 33P peptide assay); conditions: read-out: IC50 Range Class, inhibition of PKB
Chain of PKB (P31749 whole entry): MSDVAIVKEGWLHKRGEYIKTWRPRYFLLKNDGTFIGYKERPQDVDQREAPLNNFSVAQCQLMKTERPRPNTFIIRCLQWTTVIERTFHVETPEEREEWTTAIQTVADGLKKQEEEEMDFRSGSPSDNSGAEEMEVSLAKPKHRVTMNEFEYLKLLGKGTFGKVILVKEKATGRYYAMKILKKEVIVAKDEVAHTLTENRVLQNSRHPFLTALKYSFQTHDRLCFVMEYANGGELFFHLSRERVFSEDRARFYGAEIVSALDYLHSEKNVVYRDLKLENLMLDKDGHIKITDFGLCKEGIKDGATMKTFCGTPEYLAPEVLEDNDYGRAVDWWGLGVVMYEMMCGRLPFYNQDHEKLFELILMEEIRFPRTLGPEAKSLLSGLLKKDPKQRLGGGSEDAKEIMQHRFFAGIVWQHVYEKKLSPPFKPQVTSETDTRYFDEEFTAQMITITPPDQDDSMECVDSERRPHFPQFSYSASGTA
Method: GST-PKB [100 ng, specific activity (SA): 0.2 nmole/mg/min.] is incubated for 30 minutes at room temperature (RT) with purified recombinant GST-PDK1 (1 ng, SA: 2 nmole/min./mg). The activation is performed as follows: 0.1 μg of GST-PDK1 (0.05 μL) and 10 μg of GST-PKB (0.45 μL) are mixed in a total volume of 0.75 μL containing 15 μM ATP, 3 mM MgCl2, 20 mM hepes (pH 7.6) for 30 minutes at RT. The reaction is subsequently stopped by adding 0.25 μL containing 30% gycerol (w/w) and 0.06 μL of 500 mM EDTA. 100-500 ng (0.01-0.05 μL) activated GST-PKB is incubated in a final volume of 30 μL with 10 μM of the RRPRTRSFS peptide, 10 mM Mg-acetate, 50 mM MOPS (PH 7.5), 1 mM DTT and 300 μg/mL BSA, 20 μM ATP (0.1 μCi γ-^33P-ATP). The reaction is carried out for 30 minutes at RT in the presence of either 1% DMSO or the text compound of the formula (I) at the required concentration in 1% DMSO. The reaction is terminated by the addition of 20 μL 125 mM EDTA. Thirty (30) μL of each sample is spotted onto P81 Whatman and the paper squares processed. See Ferrari and Thomas, Methods Enzymol, Vol. 200, pp. 159-169 (1991). IC50 values are calculated by linear regression analysis of the percentage inhibition of each compound in duplicate.

T1 sequence (P23443 1-421 T412E): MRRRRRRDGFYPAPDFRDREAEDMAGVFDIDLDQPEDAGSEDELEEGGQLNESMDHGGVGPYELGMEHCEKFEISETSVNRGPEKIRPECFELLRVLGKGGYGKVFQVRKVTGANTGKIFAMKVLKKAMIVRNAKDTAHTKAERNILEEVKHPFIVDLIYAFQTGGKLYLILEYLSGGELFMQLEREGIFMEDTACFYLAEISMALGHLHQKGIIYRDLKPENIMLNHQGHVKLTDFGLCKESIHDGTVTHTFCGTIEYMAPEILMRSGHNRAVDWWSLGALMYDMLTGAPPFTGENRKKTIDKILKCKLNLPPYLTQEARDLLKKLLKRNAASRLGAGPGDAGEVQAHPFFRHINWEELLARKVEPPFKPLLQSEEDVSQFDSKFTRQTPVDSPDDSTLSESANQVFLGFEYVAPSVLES

Compound	pIC50 (RET)	pIC50 (PKB)	further results
Cc1cc(CCN)ccc1-n1cnc2cnc3ccc(-c4ccc5[nH]ccc5c4)cc3c21 [Example 22, 2-{4-[8-(1H-indol-5-yl)-Imidazo[4,5-c]quinolin-1-yl]-3-methyl-phenyl}-ethylamine]	–	–	pIC50 (S6K1): ≥ 6.30
NCCc1ccc(-n2cnc3cnc4ccc(-c5ccc(O)cc5)cc4c32)c(C(F)(F)F)c1 [Example 30, 4-{1-[4-(2-Amino-ethyl)-2-trifluoromethyl-phenyl]-1H-imidazo[4,5-c]quinolin-8-yl}-phenol]	–	–	pIC50 (S6K1): ≥ 6.30
NCCc1ccc(-n2cnc3cnc4cc(F)c(-c5ccc6[nH]ccc6c5)cc4c32)c(Cl)c1 [Example 83, 2-{3-Chloro-4-[7-fluoro-8-(1H-indol-5-yl)-imidazo[4,5-c]quinolin-1-yl]-phenyl}-ethylamine]	–	–	pIC50 (S6K1): ≥ 6.30
NCCc1ccc(-n2cnc3cnc4cc(F)c(-c5cccs5)cc4c32)cc1 [Example 61, 2-[4-(7-Fluoro-8-thiophen-2-yl-imidazo[4,5-c]quinolin-1-yl)-phenyl]-ethylamine]	–	≥ 6.30	–
NCCc1ccc(-n2cnc3cnc4cc(Cl)c(-c5ccsc5)cc4c32)cc1 [Example 90, 2-[4-(7-Chloro-8-thiophen-3-yl-imidazo[4,5-c]quinolin-1-yl)-phenyl]-ethylamine]	–	≥ 6.30	–
Fc1ccccc1-n1cnc2cnc3ccc(-c4ccncc4)cc3c21 [Example 125, 1-(2-Fluoro-phenyl)-8-pyridin-4-yl-1H-imidazo[4,5-c]quinoline]	–	–	IC50 Range Class, inhibition of RET (RET): B/A
NCCc1ccc(-n2cnc3cnc4cc(F)c(-c5ccc6[nH]ccc6c5)cc4c32)cc1 [Example 64, 2-{4-[7-Fluoro-8-(1H-indol-5-yl)-imidazo[4,5-c]quinolin-1-yl]-phenyl}-ethylamine]	–	≥ 6.30	–
NCCCc1ccc(-n2cnc3cnc4cc(F)c(-c5ccsc5)cc4c32)cc1 [Example 74, 3-[4-(7-Fluoro-8-thiophen-3-yl-imidazo[4,5-c]quinolin-1-yl)-phenyl]-propylamine]	–	≥ 6.30	–

The next lines start with results.

pIC50 (RET)	pIC50 (PKB)	Compound	further results
6.00 to 6.30	–	c1ccc(-n2cnc3cnc4ccc(-c5cccc(N6CCNCC6)c5)cc4c32)cc1 [Example 134, 1-Phenyl-8-(3-piperazin-1-yl-phenyl)-1H-imidazo[4,5-c]quinoline]	–
≥ 6.30	–	CN(C)Cc1cccc(-c2ccc3ncc4ncn(-c5ccccc5F)c4c3c2)c1 [Example 129, {3-[1-(2-Fluoro-phenyl)-1H-imidazo[4,5-c]quinolin-8-yl]-benzyl}-dimethyl-amine]	–
6.00 to 6.30	–	COc1ccc(OC)c(-c2ccc3ncc4ncn(-c5ccccc5F)c4c3c2)c1 [Example 119, 8-(2,5-Dimethoxy-phenyl)-1-(2-fluoro-phenyl)-1H-imidazo[4,5-c]quinoline]	–
≥ 6.30	–	Oc1ccc(-c2ccc3ncc4ncn(-c5ccccc5F)c4c3c2)cc1 [Example 127, 4-[1-(2-Fluoro-phenyl)-1H-imidazo[4,5-c]quinolin-8-yl]-phenol]	–
